Source: patent US7632815B2, “Use of calmodulin kinase II inhibitors to treat myocardial dysfunction in structural heart disease” (Vanderbilt University, priority 2001, dated 2009)
Entries after “also recorded” stand apart in the source; their conditions may differ.

Legend:
[1] = tested on: mice after myocardial infarction surgery; test: Echocardiography 3 weeks after myocardial infarction surgery; format: in vivo, mouse; details: for LV internal diameter (LVID) during diastole / LV posterior wall (LVPW) wall thickness in diastole: between groups (KN-93 1 and 10, KN-92 30 μmol/Kg, AC3-I transgenic, WT); for cardiac hypertrophy / myocardial contractility (positive inotropic effect): FIG. 7; for Left ventricular (LV) fractional shortening: unanesthetized mice, vs WT or KN-92 30 μmol/Kg
Description: FIGS. 7 A-D. CaMKII inhibition improves contractile function after myocardial infarction surgery. […] P<0.001 by ANOVA and asterisks indicate a significant difference compared to WT using a Bonferroni-corrected t test. B. LV internal diameter (LVID) during diastole is a marker of LV chamber dilation. […] C. LV posterior wall (LVPW) wall thickness in diastole is a measure of LV hypertrophy of the non-infarcted wall.
Myocardial infarction surgery: Surgery is routinely performed at the Vanderbilt mouse physiology core laboratory and is essentially identical to other published reports^18 8.^14 In brief, mice are anesthetized (pentobarbital 33 μg/g and ketamine 33 μg/g, i.p.) and placed on a rodent respirator (tidal vol. 0.5 ml, rate 120 breaths/min), the chest opened with a left parasternal thoracotomy, and the region of the mid-left anterior descending artery ligated with 8-0 suture. The chest is closed (running 5-0 suture), and the animal weaned from the respirator. Wild-type mice typically develop heart failure, as assessed by increased lung wet:dry weights. Sham operations omit the ligation step. Approximately 75% of animals survive surgery with a successfully infarcted anterior wall.

[2] = tested on: CAN+ transgenic mice; test: Echocardiography in calcineurin (CAN+) transgenic dilated cardiomyopathy model; details: AC3-I+/CAN+ vs CAN+ mice
[3] = tested on: CaMKII; test: CaMKII inhibitory potency against a synthetic CaMKII substrate; format: biochemical; details: 'previous studies'
[4] = tested on: protein kinase C; details: cited from earlier work
[5] = tested on: protein kinase A; details: cited from earlier work
[6] = tested on: CaMKII isoforms; details: cited from earlier work
[7] = tested on: CaMKII; test: CaMKII activity assay in heart homogenate with syntide 2; format: in vivo, mouse
Protocol: CaMKII activity assays: CaMKII activity was assayed in AC3-I mice and littermate controls from whole heart (ventricular) homogenate with syntide 2-a synthetic substrate with ˜50 fold selectivity for CaMKII over CaMKIV,^9 using our previously published methods.^1

[8] = tested on: transgenic mice; test: Baseline echocardiography of transgenic mice; format: in vivo, mouse
[9] = diastole or systole, AC3-I transgenic vs WT littermates

## COc1ccc(S(=O)(=O)Nc2ccccc2CN(C)C/C=C/c2ccc(Cl)cc2)cc1 [KN-92]
[1]; 3 weeks after MI surgery
  LV internal diameter (LVID) during diastole: No significant differences
  LV posterior wall (LVPW) wall thickness in diastole: No significant differences

## COc1ccc(S(=O)(=O)N(CCO)c2ccccc2CN(C)C/C=C/c2ccc(Cl)cc2)cc1 [KN-93]
[1]; 3 weeks after MI surgery
  LV internal diameter (LVID) during diastole: No significant differences
  LV posterior wall (LVPW) wall thickness in diastole: No significant differences
[1]
  cardiac hypertrophy: without affecting
  myocardial contractility (positive inotropic effect): increase
[1]; KN-93 1 μmol/Kg body weight daily, 3 weeks after MI surgery
  Left ventricular (LV) fractional shortening: significantly greater
[1]; KN-93 10 μmol/Kg body weight daily, 3 weeks after MI surgery
  Left ventricular (LV) fractional shortening: significantly greater

## KKALHRQEAVDCL [AC3-I]
[2]
  heart rates: no significant differences
[3]
  IC50: 500 nM
[4]
  activity against protein kinase C: virtually devoid of activity
[5]
  activity against protein kinase A: virtually devoid of activity
[6]
  inhibition of CaMKII isoforms: inhibits all CaMKII isoforms
[7]; ventricular homogenates, compared to AC3-C mice and WT littermates
  total CaMKII activity: significantly reduced
[7]; whole heart homogenates, AC3-I transgenic mice vs WT littermates
  cardiac CaMKII activity: significantly reduced
[8]; baseline, AC3-I transgenic vs WT littermates
  Left ventricular fractional shortening: not different
[8]; [9]
  Echocardiographic left ventricular dimensions: not significantly different
  Interventricular septal thickness: not different
[1]; 3 weeks after MI surgery, AC3-I transgenic compared to all other groups
  Heart rate: significantly slower
[1]; 3 weeks after MI surgery
  LV internal diameter (LVID) during diastole: No significant differences
  LV posterior wall (LVPW) wall thickness in diastole: No significant differences
[1]
  cardiac hypertrophy: without affecting
  myocardial contractility (positive inotropic effect): increase
[1]; transgenically targeted AC3-I expression, after MI surgery, vs WT littermates
  Left ventricular fractional shortening: significantly better; also recorded: significantly greater

## KLKALHAQERVDCL [AC3-C]
[7]; AC3-C transgenic mice, FIG. 6
  total CaMKII activity: high
[8]; AC3-C transgenic compared to AC3-I mice
  Left ventricular fractional shortening: significantly depressed
[8]; AC3-C transgenic vs AC3-I mice
  left ventricular internal diameter (LVID) in diastole: significantly greater
